Data from patent publication US11266655B2, “Methods and compositions for treating urea cycle disorders” (Camp4 Therapeutics Corporation, priority 2019, dated 2022).

Experiments:
[1] = test system: SLC25A15; assay: RNA-seq of compound-treated primary human hepatocytes, SLC25A15 expression; assay type: cell-based; details: primary human hepatocytes; for Relative SLC25A15 level vs Untreated (±Standard Deviation): triplicate (Table 24, FIG. 16A-B)
[2] = test system: urea cycle genes; assay: RNA-seq of primary human hepatocytes, compounds that modulate multiple urea cycle-related genes; assay type: cell-based; details: primary human hepatocytes, RNA-seq; for Up-regulated Genes: urea cycle-related genes significantly increased (Table 10)
Procedure: To identify small molecules that modulate urea cycle enzymes, primary human hepatocytes were prepared as a monoculture, and at least one small molecule compound was applied to the cells.
RNA-seq was performed to determine the effects of the compounds on the expression of urea cycle enzymes in hepatocytes. Fold change was calculated by dividing the level of expression in the cell system that had been perturbed by the level of expression in an unperturbed system. Changes in expression having a p-value ≤0.05 were considered significant.
Significance was defined as an FPKM ≥1, a log 2 (fold change) ≥0.5, and a q-value of ≤0.05 for selected gene target.

[3] = test system: CPS1; assay: RNA-seq of compound-treated primary human hepatocytes, CPS1 expression; assay type: cell-based; details: primary human hepatocytes; for CPS1 expression, Fold change (Log 2) vs untreated: RNA-seq
[4] = test system: OTC; assay: RNA-seq of compound-treated primary human hepatocytes, OTC expression; assay type: cell-based; details: primary human hepatocytes, RNA-seq
[5] = test system: ARG1; assay: RNA-seq of compound-treated primary human hepatocytes, ARG1 expression; assay type: cell-based; details: primary human hepatocytes; for Fold change (Log 2) vs untreated, ARG1 expression: RNA-seq (Table 7); for Relative ARGI level vs Untreated (±Standard Deviation): triplicate (Table 17, FIG. 9)
[6] = test system: NAGS; assay type: cell-based, human
[7] = test system: SLC25A13; assay: RNA-seq of compound-treated primary human hepatocytes, SLC25A13 expression; assay type: cell-based; details: primary human hepatocytes, triplicate (Table 23, FIG. 15)
[8] = test system: ASS1; assay: RNA-seq of compound-treated primary human hepatocytes, ASS1 expression; assay type: cell-based; details: 10 μM, primary human hepatocytes, triplicate (Table 15, FIG. 7)

PDGF
Fold change (Log 2) vs untreated, SLC25A15 expression ([1]; RNA-seq (Table 8)): 0.71 Log 2 | number of urea cycle genes whose expression was significantly up-regulated [2]: four | Up-regulated Genes [2]: CPS1, OTC, ARG1, SLC25A15 | CPS1 expression, Fold change (Log 2) vs untreated [3]: 2.12 Log 2 | OTC expression, Fold change (Log 2) vs untreated [4]: 0.77 Log 2 | Fold change (Log 2) vs untreated, ARG1 expression [5]: 1.85 Log 2

HGF/SF: Hepatocyte Growth Factor, also known as scatter factor (SF)
number of urea cycle genes whose expression was significantly up-regulated [2]: four | Up-regulated Genes [2]: NAGS, CPS1, OTC, ARG1 | CPS1 expression, Fold change (Log 2) vs untreated [3]: 2.02 Log 2 | OTC expression, Fold change (Log 2) vs untreated [4]: 0.56 Log 2 | Fold change (Log 2) vs untreated, NAGS expression [6]: 0.56 Log 2 | Fold change (Log 2) vs untreated, ARG1 expression [5]: 1.51 Log 2

Activin
number of urea cycle genes whose expression was significantly up-regulated [2]: four | Up-regulated Genes [2]: NAGS, CPS1, OTC, ARG1 | CPS1 expression, Fold change (Log 2) vs untreated [3]: 2.23 Log 2 | OTC expression, Fold change (Log 2) vs untreated [4]: 0.94 Log 2 | Fold change (Log 2) vs untreated, NAGS expression [6]: 0.69 Log 2 | Fold change (Log 2) vs untreated, ARG1 expression [5]: 2.01 Log 2

COc1ccc(-c2ccc3c(N4CCOC[C@@H]4C)nc(N4CCOC[C@@H]4C)nc3n2)cc1CO [AZD-8055]
Relative SLC25A15 level vs Untreated (±Standard Deviation) ([1]; 3 μM): 1.3 ± 0.06 | Relative SLC25A15 level vs Untreated (±Standard Deviation) ([1]; 10 μM): 1.64 ± 0.09 | Relative SLC25A13 level vs Untreated (±Standard Deviation) ([7]; 3 μM): 1.35 ± 0.06 | Relative SLC25A13 level vs Untreated (±Standard Deviation) ([7]; 10 μM): 1.64 ± 0.09 | Relative CPS1 level vs Untreated (±Standard Deviation) ([3]; 1 μM, triplicate (Table 19, FIG. 11)): 1.42 ± 0.24 | Relative ASS1 level vs Untreated (±Standard Deviation) [8]: 1.66 ± 0.11 | Relative NAGS level vs Untreated (±Standard Deviation) ([6]; 10 μM, primary human hepatocytes, triplicate (Table 21, FIG. 13)): 1.43 ± 0.01 | Relative ARGI level vs Untreated (±Standard Deviation) ([5]; 0.3 μM): 1.44 ± 0.09 | Relative ARGI level vs Untreated (±Standard Deviation) ([5]; 1 μM): 1.43 ± 0.25 | Relative ARGI level vs Untreated (±Standard Deviation) ([5]; 3 μM): 1.36 ± 0.07

B1: Nodal: 13 kDa member of the TGF-B superfamily (protein, UniProt Q96S42 238-347, looked up)
Nodal homolog: HHLPDRSQLCRKVKFQVDFNLIGWGSWIIYPKQYNAYRCEGECPNPVGEEFHPTNHAYIQSLLKRYQPHRVPSTCCAPVKTKPLSMLYVDNGRVLLDHHKDMIVEECGCL
number of urea cycle genes whose expression was significantly up-regulated [2]: three | Up-regulated Genes [2]: CPS1, OTC, ARG1 | CPS1 expression, Fold change (Log 2) vs untreated [3]: 2.44 Log 2 | OTC expression, Fold change (Log 2) vs untreated [4]: 0.68 Log 2 | Fold change (Log 2) vs untreated, ARG1 expression [5]: 2.05 Log 2

B2: Anti mullerian hormone: member of the TGF-B gene family which mediates male sexual differentiation (protein, UniProt P03971 452-560, looked up)
Muellerian-inhibiting factor: SAGATAADGPCALRELSVDLRAERSVLIPETYQANNCQGVCGWPQSDRNPRYGNHVVLLLKMQVRGAALARPPCCVPTAYAGKLLISLSEERISAHHVPNMVATECGCR
number of urea cycle genes whose expression was significantly up-regulated [2]: three | Up-regulated Genes [2]: CPS1, OTC, ARG1 | CPS1 expression, Fold change (Log 2) vs untreated [3]: 2.35 Log 2 | OTC expression, Fold change (Log 2) vs untreated [4]: 0.81 Log 2 | Fold change (Log 2) vs untreated, ARG1 expression [5]: 2.06 Log 2

B3: Wnt3a: secreted signaling protein of the WNT gene family (protein, UniProt P56704 19-352, looked up)
Protein Wnt-3a: SYPIWWSLAVGPQYSSLGSQPILCASIPGLVPKQLRFCRNYVEIMPSVAEGIKIGIQECQHQFRGRRWNCTTVHDSLAIFGPVLDKATRESAFVHAIASAGVAFAVTRSCAEGTAAICGCSSRHQGSPGKGWKWGGCSEDIEFGGMVSREFADARENRPDARSAMNRHNNEAGRQAIASHMHLKCKCHGLSGSCEVKTCWWSQPDFRAIGDFLKDKYDSASEMVVEKHRESRGWVETLRPRYTYFKVPTERDLVYYEASPNFCEPNPETGSFGTRDRTCNVSSHGIDGCDLLCCGRGHNARAERRREKCRCVFHWCCYVSCQECTRVYDVHTCK
number of urea cycle genes whose expression was significantly up-regulated [2]: four | Up-regulated Genes [2]: CPS1, OTC, ARG1, SLC25A15 | CPS1 expression, Fold change (Log 2) vs untreated [3]: 2.6 Log 2 | OTC expression, Fold change (Log 2) vs untreated [4]: 0.92 Log 2 | Fold change (Log 2) vs untreated, ARG1 expression [5]: 2.07 Log 2
